Test results from ChEMBL document CHEMBL3885881, “DrugMatrix”.

Organism: Rattus norvegicus
Assay: DrugMatrix - Regimen: Daily Repeat
Assay type: toxicity, organism-based, Sprague-Dawley
Parameters: regimen Daily Repeat, gender Male, age 6-8 weeks
Settings: in vivo, iv, vehicle 100 % SALINE; for ABSOLUTE BASOPHIL / ABSOLUTE EOSINOPHIL / ABSOLUTE LYMPHOCYTE / ABSOLUTE MONOCYTE / ABSOLUTE SEGMENTED NEUTROPHIL / BASOPHIL / EOSINOPHIL / ERYTHROCYTE COUNT / HEMATOCRIT / HEMOGLOBIN / LEUKOCYTE COUNT / LYMPHOCYTE / MEAN CORPUSCULAR HEMOGLOBIN / MEAN CORPUSCULAR HEMOGLOBIN CONCENTRATION / MEAN CORPUSCULAR VOLUME / MONOCYTE / NEUTROPHIL / NUCLEATED RED BLOOD CELLS / PLATELET COUNT: tissue Blood; for ALANINE AMINOTRANSFERASE / ALBUMIN / ALKALINE PHOSPHATASE / ASPARTATE AMINOTRANSFERASE / BLOOD UREA NITROGEN / CARBON DIOXIDE / CHLORIDE / CHOLESTEROL / CREATINE PHOSPHOKINASE / CREATININE / GLUCOSE / LACTATE DEHYDROGENASE / LIPASE / PHOSPHORUS / POTASSIUM / SODIUM / TOTAL BILIRUBIN / TOTAL PROTEIN / URIC ACID: tissue Plasma
[1] = 0 mg/kg, 72 h, dose level Control, time 3 day
[2] = 0 mg/kg, 120 h, dose level Control, time 5 day
[3] = 200 mg/kg, 72 h, dose level Low, time 3 day

CC1(C)S[C@@H]2[C@H](NC(=O)[C@H](NC(=O)N3CCNC3=O)c3ccccc3)C(=O)N2[C@H]1C(=O)O [AZLOCILLIN]
ABSOLUTE BASOPHIL [1]: 0 CELLS/uL
ABSOLUTE EOSINOPHIL [1]: 15.33 CELLS/uL
ABSOLUTE LYMPHOCYTE [1]: 9513.5 CELLS/uL
ABSOLUTE MONOCYTE [1]: 94.67 CELLS/uL
ABSOLUTE SEGMENTED NEUTROPHIL [1]: 709.83 CELLS/uL
BASOPHIL [1]: 0%
EOSINOPHIL [1]: 0.17%
ERYTHROCYTE COUNT [1]: 5.63 x10E6/uL
HEMATOCRIT [1]: 34.63%
HEMOGLOBIN [1]: 13.6 G/DL
LEUKOCYTE COUNT [1]: 10.33 x10E3/uL
LYMPHOCYTE [1]: 92%
MEAN CORPUSCULAR HEMOGLOBIN [1]: 24.17 pg
MEAN CORPUSCULAR HEMOGLOBIN CONCENTRATION [1]: 39.28 G/DL
MEAN CORPUSCULAR VOLUME [1]: 61.57 fL
MONOCYTE [1]: 0.83%
NEUTROPHIL [1]: 7%
NUCLEATED RED BLOOD CELLS [1]: 0 /100WBC
PLATELET COUNT [1]: 903.17 x10E3/uL
ALANINE AMINOTRANSFERASE [1]: 49.33 u/L
ALBUMIN [1]: 4.27 G/DL
ALKALINE PHOSPHATASE [1]: 400.83 u/L
ASPARTATE AMINOTRANSFERASE [1]: 77.5 u/L
BLOOD UREA NITROGEN [1]: 16.33 mg/dL
CARBON DIOXIDE [1]: 29.33 mmol/L
CHLORIDE [1]: 99.67 MEQ/L
CHOLESTEROL [1]: 66.67 mg/dL
CREATINE PHOSPHOKINASE [1]: 275.33 u/L
CREATININE [1]: 0.18 mg/dL
GLUCOSE [1]: 163.83 mg/dL
LACTATE DEHYDROGENASE [1]: 125.33 u/L
LIPASE [1]: 10 u/L
PHOSPHORUS [1]: 12.12 mg/dL
POTASSIUM [1]: 6.68 MEQ/L
SODIUM [1]: 144.02 MEQ/L
TOTAL BILIRUBIN [1]: 0.18 mg/dL
TOTAL PROTEIN [1]: 5.87 G/DL
URIC ACID [1]: 1.63 mg/dL
ABSOLUTE BASOPHIL [2]: 0 CELLS/uL
ABSOLUTE EOSINOPHIL [2]: 48.83 CELLS/uL
ABSOLUTE LYMPHOCYTE [2]: 14562 CELLS/uL
ABSOLUTE MONOCYTE [2]: 138.67 CELLS/uL
ABSOLUTE SEGMENTED NEUTROPHIL [2]: 1733.83 CELLS/uL
BASOPHIL [2]: 0%
EOSINOPHIL [2]: 0.33%
ERYTHROCYTE COUNT [2]: 5.89 x10E6/uL
HEMATOCRIT [2]: 36.7%
HEMOGLOBIN [2]: 14.42 G/DL
LEUKOCYTE COUNT [2]: 16.48 x10E3/uL
LYMPHOCYTE [2]: 88.83%
MEAN CORPUSCULAR HEMOGLOBIN [2]: 24.52 pg
MEAN CORPUSCULAR HEMOGLOBIN CONCENTRATION [2]: 39.3 G/DL
MEAN CORPUSCULAR VOLUME [2]: 62.37 fL
MONOCYTE [2]: 0.67%
NEUTROPHIL [2]: 10.17%
NUCLEATED RED BLOOD CELLS [2]: 0 /100WBC
PLATELET COUNT [2]: 1076.5 x10E3/uL
ALANINE AMINOTRANSFERASE [2]: 44.67 u/L
ALBUMIN [2]: 4.23 G/DL
ALKALINE PHOSPHATASE [2]: 357.33 u/L
ASPARTATE AMINOTRANSFERASE [2]: 84.83 u/L
BLOOD UREA NITROGEN [2]: 15.5 mg/dL
CARBON DIOXIDE [2]: 27 mmol/L
CHLORIDE [2]: 99.5 MEQ/L
CHOLESTEROL [2]: 63.67 mg/dL
CREATINE PHOSPHOKINASE [2]: 331.33 u/L
CREATININE [2]: 0.18 mg/dL
GLUCOSE [2]: 167.33 mg/dL
LACTATE DEHYDROGENASE [2]: 320.17 u/L
LIPASE [2]: 9.17 u/L
PHOSPHORUS [2]: 12.05 mg/dL
POTASSIUM [2]: 6.54 MEQ/L
SODIUM [2]: 143.02 MEQ/L
TOTAL BILIRUBIN [2]: 0.2 mg/dL
TOTAL PROTEIN [2]: 6.23 G/DL
URIC ACID [2]: 2.07 mg/dL
ABSOLUTE BASOPHIL [3]: 0 CELLS/uL
ABSOLUTE EOSINOPHIL [3]: 0 CELLS/uL
ABSOLUTE LYMPHOCYTE [3]: 12492.33 CELLS/uL
ABSOLUTE MONOCYTE [3]: 142.67 CELLS/uL
ABSOLUTE SEGMENTED NEUTROPHIL [3]: 1631.67 CELLS/uL
BASOPHIL [3]: 0%
EOSINOPHIL [3]: 0%
ERYTHROCYTE COUNT [3]: 5.71 x10E6/uL
HEMATOCRIT [3]: 37.53%
HEMOGLOBIN [3]: 14.67 G/DL
LEUKOCYTE COUNT [3]: 14.27 x10E3/uL
LYMPHOCYTE [3]: 87.67%
MEAN CORPUSCULAR HEMOGLOBIN [3]: 25.73 pg
MEAN CORPUSCULAR HEMOGLOBIN CONCENTRATION [3]: 39.1 G/DL
MEAN CORPUSCULAR VOLUME [3]: 65.8 fL
MONOCYTE [3]: 1%
NEUTROPHIL [3]: 11.33%
NUCLEATED RED BLOOD CELLS [3]: 0 /100WBC
PLATELET COUNT [3]: 1015.67 x10E3/uL
ALANINE AMINOTRANSFERASE [3]: 70.67 u/L
ALBUMIN [3]: 4.47 G/DL
ALKALINE PHOSPHATASE [3]: 482 u/L
ASPARTATE AMINOTRANSFERASE [3]: 112.67 u/L
BLOOD UREA NITROGEN [3]: 16.67 mg/dL
CARBON DIOXIDE [3]: 27.33 mmol/L
CHLORIDE [3]: 102.33 MEQ/L
CHOLESTEROL [3]: 82.67 mg/dL
CREATINE PHOSPHOKINASE [3]: 554 u/L
CREATININE [3]: 0.22 mg/dL
GLUCOSE [3]: 148 mg/dL
LACTATE DEHYDROGENASE [3]: 194.33 u/L
LIPASE [3]: 10 u/L
PHOSPHORUS [3]: 11.97 mg/dL
POTASSIUM [3]: 7.02 MEQ/L
SODIUM [3]: 145.3 MEQ/L
TOTAL BILIRUBIN [3]: 0.23 mg/dL
TOTAL PROTEIN [3]: 5.97 G/DL
URIC ACID [3]: 1.67 mg/dL
